Results as given in ChEMBL document CHEMBL3044687, “Microwave-assisted synthesis of some novel and potent antibacterial and antifungal compounds with biological screening” (2012).

How the values were obtained:
Type in all cases: functional
Conditions in all cases: read-out: DIZ
[1] = system: Aspergillus niger; assay: Antifungal activity against Aspergillus niger at 100 ug/ml after 48 hr by disk diffusion method
[2] = system: Pseudomonas aeruginosa; assay: Antibacterial activity against Pseudomonas aeruginosa at 100 ug/ml after 24 hr by disk diffusion method
[3] = system: Staphylococcus aureus; assay: Antibacterial activity against Staphylococcus aureus at 200 ug/ml after 24 hr by disk diffusion method
[4] = system: Escherichia coli; assay: Antibacterial activity against Escherichia coli at 50 ug/ml after 24 hr by disk diffusion method
[5] = system: Pseudomonas aeruginosa; assay: Antibacterial activity against Pseudomonas aeruginosa at 200 ug/ml after 24 hr by disk diffusion method
[6] = system: Bacillus subtilis; assay: Antibacterial activity against Bacillus subtilis at 100 ug/ml after 24 hr by disk diffusion method
[7] = system: Escherichia coli; assay: Antibacterial activity against Escherichia coli at 200 ug/ml after 24 hr by disk diffusion method
[8] = system: Aspergillus niger; assay: Antifungal activity against Aspergillus niger at 50 ug/ml after 48 hr by disk diffusion method
[9] = system: Bacillus subtilis; assay: Antibacterial activity against Bacillus subtilis at 50 ug/ml after 24 hr by disk diffusion method
[10] = system: Candida albicans; assay: Antifungal activity against Candida albicans at 100 ug/ml after 48 hr by disk diffusion method
[11] = system: Aspergillus niger; assay: Antifungal activity against Aspergillus niger at 200 ug/ml after 48 hr by disk diffusion method
[12] = system: Candida albicans; assay: Antifungal activity against Candida albicans at 200 ug/ml after 48 hr by disk diffusion method
[13] = system: Candida albicans; assay: Antifungal activity against Candida albicans at 50 ug/ml after 48 hr by disk diffusion method
[14] = system: Escherichia coli; assay: Antibacterial activity against Escherichia coli at 100 ug/ml after 24 hr by disk diffusion method
[15] = system: Staphylococcus aureus; assay: Antibacterial activity against Staphylococcus aureus at 50 ug/ml after 24 hr by disk diffusion method
[16] = system: Pseudomonas aeruginosa; assay: Antibacterial activity against Pseudomonas aeruginosa at 50 ug/ml after 24 hr by disk diffusion method
[17] = system: Bacillus subtilis; assay: Antibacterial activity against Bacillus subtilis at 200 ug/ml after 24 hr by disk diffusion method
[18] = system: Staphylococcus aureus; assay: Antibacterial activity against Staphylococcus aureus at 100 ug/ml after 24 hr by disk diffusion method

Row | Structure (SMILES) | zone of inhibition at 100 µg/mL [1] | zone of inhibition at 100 µg/mL [2] | zone of inhibition at 200 µg/mL [3] | zone of inhibition at 50 µg/mL [4] | zone of inhibition at 200 µg/mL [5] | zone of inhibition at 100 µg/mL [6] | zone of inhibition at 200 µg/mL [7] | zone of inhibition at 50 µg/mL [8] | zone of inhibition at 50 µg/mL [9] | zone of inhibition at 100 µg/mL [10] | zone of inhibition at 200 µg/mL [11] | zone of inhibition at 200 µg/mL [12] | zone of inhibition at 50 µg/mL [13] | zone of inhibition at 100 µg/mL [14] | zone of inhibition at 50 µg/mL [15] | zone of inhibition at 50 µg/mL [16] | zone of inhibition at 200 µg/mL [17] | zone of inhibition at 100 µg/mL [18]
1 | O=C1NC(c2ccccc2)(c2ccccc2)C(=O)N1CN1CCOCC1 | 11 mm | 8 mm | 9 mm | 4 mm | 14 mm | 12 mm | 17 mm | 10 mm | 4 mm | 12 mm | 12 mm | 15 mm | 10 mm | 10 mm | 5 mm | 4 mm | 14 mm | 6 mm
2 | CN1CCN(CN2C(=O)NC(c3ccccc3)(c3ccccc3)C2=O)CC1 | 12 mm | 6 mm | 20 mm | 6 mm | 10 mm | 12 mm | 16 mm | 11 mm | 4 mm | 13 mm | 12 mm | 13 mm | 12 mm | 13 mm | 6 mm | 4 mm | 19 mm | 12 mm
3 | O=C1NC(c2ccccc2)(c2ccccc2)C(=O)N1Cn1nnc2ccccc21 | 11 mm | 10 mm | 18 mm | 3 mm | 14 mm | 14 mm | 18 mm | 11 mm | 5 mm | 12 mm | 11 mm | 13 mm | 11 mm | 10 mm | 6 mm | 6 mm | 22 mm | 12 mm
4 | O=C1NC(c2ccccc2)(c2ccccc2)C(=O)N1Cn1ccnc1 | 17 mm | 10 mm | 20 mm | 6 mm | 20 mm | 11 mm | 22 mm | 15 mm | 5 mm | 24 mm | 19 mm | 30 mm | 17 mm | 16 mm | 6 mm | 6 mm | 15 mm | 11 mm
5 | O=C1NC(c2ccccc2)(c2ccccc2)C(=O)N1Cn1cnc2ccccc21 | 19 mm | 11 mm | 15 mm | 7 mm | 14 mm | 13 mm | 24 mm | 16 mm | 5 mm | 24 mm | 32 mm | 32 mm | 16 mm | 15 mm | 5 mm | 6 mm | 23 mm | 13 mm
6 | O=C1NC(c2ccccc2)(c2ccccc2)C(=O)N1CN1C(=O)c2ccccc2C1=O | 15 mm | 8 mm | 9 mm | 5 mm | 10 mm | 12 mm | 20 mm | 12 mm | 4 mm | 16 mm | 16 mm | 20 mm | 15 mm | 12 mm | 4 mm | 5 mm | 16 mm | 6 mm
7 | O=C1NC(c2ccccc2)(c2ccccc2)C(=O)N1CNc1nc2ccccc2s1 | 19 mm | 12 mm | 19 mm | 6 mm | 20 mm | 10 mm | 23 mm | 16 mm | 7 mm | 18 mm | 31 mm | 32 mm | 17 mm | 15 mm | 5 mm | 7 mm | 21 mm | 10 mm
8 | O=C1NC(c2ccccc2)(c2ccccc2)C(=O)N1CNc1nccs1 | 11 mm | 12 mm | 21 mm | 6 mm | 20 mm | 11 mm | 24 mm | 11 mm | 5 mm | 12 mm | 11 mm | 13 mm | 11 mm | 15 mm | 4 mm | 4 mm | 19 mm | 10 mm
9 | CCN(CC)CN1C(=O)NC(c2ccccc2)(c2ccccc2)C1=O | 10 mm | 9 mm | 14 mm | 3 mm | 14 mm | 9 mm | 18 mm | 8 mm | 3 mm | 10 mm | 12 mm | 11 mm | 9 mm | 13 mm | 5 mm | 5 mm | 15 mm | 10 mm
